The values that follow come from patent publication US20030088061A1, “Materials and methods to modulate ligand binding/enzymatic activity of alpha/beta proteins containing an allosteric regulatory site” (priority 2000, published 2003).

What all share (assay type): cell-based
The target in one assay is T1, α4β7 (Homo sapiens, UniProt P13612+P26010).
T1 construct: endogenous in cells; host or cells: JY cells
Kind of assay: JY/α4β7 cell adhesion to MAdCAM-1/Ig. The following applies: PMA-treated JY cells. The procedure:
(§1) To assess the selectivity of each compound, an IC50 value was determined for additional binding partner compounds JY/αVβ3 and vitronectin, JY/α4β1 and VCAM/Ig, JY/αdβ2 and VCAM, JY/[…] and ICAM-1, JY/αMβ2 and iC3b, and JY/α4β7 and MAdCAM-1.
(§2) For each IC50 assay, 50 μl of the ligand diluted in 50 mM bicarbonate buffer (pH 9.6) was dispensed per well of an Immulon-4 plate. A single plate was used to test two different ligands, each in triplicate, The coating concentration for the various ligands was as follows: VCAM-1/Ig at 2.0 μg/ml; ICAM-1/Ig at 5.0 μg/ml; vitronectin at 0.5 μg/ml; MAdCAM-1/Ig at 3.0 μg/ml, and iC3b at 5.0 μg/ml. The capture antibody, e.g. anti-CD18 monoclonal antibody TS1/22, was added at a concentration of 10 μg/ml in 50 μl/well. Ligand-coated plates were covered and stored overnight at 4° C. The following day, the contents of each well was decanted, and each plate was washed three times with 200 μl/well D-PBS. The plate was then blocked by the addition of 300 μl/well of 1% BSA/D-PBS solution. Each plate was again covered and incubated at room temperature for at least 1 hour.
(§3) Prior to transfer to the adhesion plate, the compounds were initially diluted by transferring 4.2 μl of the diluted compounds to a 96-well deepwell titer plate containing 0.7 ml/well of RPMI 1640, 0.1% BSA, and 3 ng/ml PMA (Sigma Corp., St. Louis, Mo.) pre-warmed to 37° C. The 1% BSA/D-PBS blocking solution was decanted from the 96-well Immulon-4 plates and replaced with 0.2 ml of diluted compound. For each 96-well plate to be screened, approximately 8×10^6 cells were collected by centrifugation and resuspended in adhesion media (RPMI 1640 containing 0.1% BSA) to a final concentration of 10^6/ml. To prevent PMA-dependent homotypic aggregation in the adhesion assay, the anti-CD18 antibody 22F12C (ICOS Corp., Bothell, Wash.) was added to the cell suspensions to a final concentration of 10 μg/ml, and the cells were incubated at 37° C. for 15 min. This antibody was not added to CD18-dependent adhesion assays involving JY/αLβ2, JY/αdβ2 or JY/αMβ2 and their corresponding ligands ICAM-1, VCAM-1, or iC3b.
(§4) The adhesion assay was initiated by addition of 100 μl of the cell suspension to each well of the Immulon-4 plate. […] Adherent cells were quantitated by determining the absorbance at 570 nm in a plate spectrophotometer. The percentage of cell binding was determined by using the mean values for each triplicate in a given assay and the formula below. […]
(§5) The four compounds Cmpd K, Cmpd W, Cmpd Z, Cmpd D identified in the primary screen were selected for further specificity profiling, whereby their IC50 values were determined in additional integrin-dependent adhesive events. […]

A further assay has as its target T2, αLβ2 (Homo sapiens, UniProt P05107+P20701).
T2 construct: endogenous in cells; host or cells: JY cells
As to the kind of experiment: JY/αLβ2 cell adhesion to ICAM-1/Ig. Particulars: PMA-treated JY cells. The procedure:
as §1, §2, §3, §4, §5

The next assay deals with T3, αdβ2 (Homo sapiens, UniProt P05107+Q13349).
T3 construct: expressed in transfected cells; host or cells: JY cells, plasmid pMHneo/aD
Kind of assay: JY/αdβ2 cell adhesion to VCAM. The following applies: PMA-treated JY cells. The procedure:
as §1, §2, §3, §4, §5

The target of another assay is α4β1 (Homo sapiens, UniProt P05556+P13612). Kind of assay: JY/α4β1 cell adhesion to VCAM-1/Ig. The following applies: PMA-treated JY cells. Details: host or cells: JY cells. The procedure:
as §1, §2, §3, §4, §5

In the next assay the target is T4, αMβ2 (Homo sapiens, UniProt P05107+P11215).
T4 construct: expressed in transfected cells; host or cells: JY (human B lymphoblastoid) cells
Kind of assay: JY/αMβ2 cell adhesion to iC3b. The following applies: PMA-treated JY cells. The procedure: as §1, §2
(§6) Prior to transfer to the adhesion plate, the compounds were initially diluted by transferring 4.2 μl of the diluted compounds to a 96-well deepwell titer plate containing 0.7 ml/well of RPMI 1640, 0.1% BSA, and 3 ng/ml PMA (Sigma Corp., St. Louis, Mo.) pre-warmed to 37° C. The 1% BSA/D-PBS blocking solution was decanted from the 96-well Immulon-4 plates and replaced with 0.2 ml of diluted compound. […]
as §4, §5

A further assay has as its target T5, αVβ3 (Homo sapiens, UniProt P05106+P06756).
T5 construct: endogenous in cells; host or cells: JY cells
Kind of assay: JY/αVβ3 cell adhesion to vitronectin. Particulars: PMA-treated JY cells; read-out: VN αVβ3 IC50. As for the experimental part: as §1, §2, §6, §4, §5

Structures are written as SMILES. Where only a bound is given, the exact number is not on record here.

α4β1, sequence (P13612 34-1032): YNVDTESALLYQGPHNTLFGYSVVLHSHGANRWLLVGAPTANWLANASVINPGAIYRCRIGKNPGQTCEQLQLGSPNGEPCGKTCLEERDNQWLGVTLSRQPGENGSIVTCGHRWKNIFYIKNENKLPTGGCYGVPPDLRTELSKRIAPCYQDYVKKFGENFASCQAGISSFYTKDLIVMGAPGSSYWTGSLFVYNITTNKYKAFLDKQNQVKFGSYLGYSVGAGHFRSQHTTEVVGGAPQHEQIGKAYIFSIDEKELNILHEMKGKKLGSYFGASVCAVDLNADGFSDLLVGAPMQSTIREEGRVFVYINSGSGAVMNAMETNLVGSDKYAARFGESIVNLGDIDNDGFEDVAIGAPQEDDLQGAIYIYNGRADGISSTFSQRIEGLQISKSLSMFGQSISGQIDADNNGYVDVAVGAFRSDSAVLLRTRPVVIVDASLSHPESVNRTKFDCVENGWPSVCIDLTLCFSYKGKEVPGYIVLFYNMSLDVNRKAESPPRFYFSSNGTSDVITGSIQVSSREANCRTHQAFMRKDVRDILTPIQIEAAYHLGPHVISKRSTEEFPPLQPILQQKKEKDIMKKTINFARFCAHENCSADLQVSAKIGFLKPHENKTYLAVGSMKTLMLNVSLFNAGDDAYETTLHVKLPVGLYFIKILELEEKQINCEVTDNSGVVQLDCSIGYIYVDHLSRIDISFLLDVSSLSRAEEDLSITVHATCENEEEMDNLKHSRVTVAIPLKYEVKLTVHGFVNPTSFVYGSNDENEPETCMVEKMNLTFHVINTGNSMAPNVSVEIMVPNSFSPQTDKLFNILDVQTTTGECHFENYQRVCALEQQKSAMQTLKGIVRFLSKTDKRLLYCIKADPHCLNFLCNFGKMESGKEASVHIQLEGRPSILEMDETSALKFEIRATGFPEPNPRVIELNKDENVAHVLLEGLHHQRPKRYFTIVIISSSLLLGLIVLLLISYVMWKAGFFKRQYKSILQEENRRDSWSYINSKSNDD
α4β1, sequence (P05556 21-798): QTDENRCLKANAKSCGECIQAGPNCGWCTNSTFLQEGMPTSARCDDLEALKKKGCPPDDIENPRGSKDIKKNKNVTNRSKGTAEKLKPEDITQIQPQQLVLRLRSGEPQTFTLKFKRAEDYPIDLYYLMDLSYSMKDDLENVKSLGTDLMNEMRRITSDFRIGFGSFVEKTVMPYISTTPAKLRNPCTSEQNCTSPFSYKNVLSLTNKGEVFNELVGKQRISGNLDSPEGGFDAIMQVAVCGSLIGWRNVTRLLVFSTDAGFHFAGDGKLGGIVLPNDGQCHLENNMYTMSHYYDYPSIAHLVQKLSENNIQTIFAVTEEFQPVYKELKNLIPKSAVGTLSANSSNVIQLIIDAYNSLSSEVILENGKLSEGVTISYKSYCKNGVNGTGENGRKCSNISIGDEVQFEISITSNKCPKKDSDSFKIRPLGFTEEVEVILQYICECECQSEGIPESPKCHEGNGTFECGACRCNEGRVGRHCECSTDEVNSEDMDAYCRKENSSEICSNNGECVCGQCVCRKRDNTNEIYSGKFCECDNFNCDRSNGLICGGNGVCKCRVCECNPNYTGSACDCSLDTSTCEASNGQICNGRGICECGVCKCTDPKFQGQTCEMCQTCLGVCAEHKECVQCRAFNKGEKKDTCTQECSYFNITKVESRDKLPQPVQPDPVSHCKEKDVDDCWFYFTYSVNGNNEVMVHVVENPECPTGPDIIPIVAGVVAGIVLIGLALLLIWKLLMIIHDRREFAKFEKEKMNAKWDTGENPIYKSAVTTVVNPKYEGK
T1 sequence (P13612 34-1032): as the sequence (P13612 34-1032) above
T1 sequence (P26010 20-798): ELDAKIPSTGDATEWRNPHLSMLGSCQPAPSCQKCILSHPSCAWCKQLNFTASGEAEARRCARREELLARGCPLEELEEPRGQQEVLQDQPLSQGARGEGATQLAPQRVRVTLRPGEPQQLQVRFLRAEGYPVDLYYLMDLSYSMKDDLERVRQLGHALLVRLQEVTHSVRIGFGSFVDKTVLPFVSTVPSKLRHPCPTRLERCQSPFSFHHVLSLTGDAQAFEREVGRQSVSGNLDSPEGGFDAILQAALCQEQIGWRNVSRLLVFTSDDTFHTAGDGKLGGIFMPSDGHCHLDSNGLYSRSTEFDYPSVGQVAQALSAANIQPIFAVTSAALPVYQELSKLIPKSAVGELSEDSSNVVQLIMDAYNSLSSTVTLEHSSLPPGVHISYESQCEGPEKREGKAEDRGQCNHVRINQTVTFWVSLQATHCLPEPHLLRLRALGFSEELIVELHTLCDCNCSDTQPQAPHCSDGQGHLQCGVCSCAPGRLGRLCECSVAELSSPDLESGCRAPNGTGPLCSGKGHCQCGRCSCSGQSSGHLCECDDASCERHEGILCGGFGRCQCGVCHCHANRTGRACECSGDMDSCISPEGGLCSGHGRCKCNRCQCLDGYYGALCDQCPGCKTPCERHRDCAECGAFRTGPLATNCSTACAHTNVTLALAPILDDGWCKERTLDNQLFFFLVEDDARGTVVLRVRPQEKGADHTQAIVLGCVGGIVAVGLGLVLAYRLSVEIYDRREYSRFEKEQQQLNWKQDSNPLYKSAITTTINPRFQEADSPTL
T5 sequence (P06756 31-889 limits assumed): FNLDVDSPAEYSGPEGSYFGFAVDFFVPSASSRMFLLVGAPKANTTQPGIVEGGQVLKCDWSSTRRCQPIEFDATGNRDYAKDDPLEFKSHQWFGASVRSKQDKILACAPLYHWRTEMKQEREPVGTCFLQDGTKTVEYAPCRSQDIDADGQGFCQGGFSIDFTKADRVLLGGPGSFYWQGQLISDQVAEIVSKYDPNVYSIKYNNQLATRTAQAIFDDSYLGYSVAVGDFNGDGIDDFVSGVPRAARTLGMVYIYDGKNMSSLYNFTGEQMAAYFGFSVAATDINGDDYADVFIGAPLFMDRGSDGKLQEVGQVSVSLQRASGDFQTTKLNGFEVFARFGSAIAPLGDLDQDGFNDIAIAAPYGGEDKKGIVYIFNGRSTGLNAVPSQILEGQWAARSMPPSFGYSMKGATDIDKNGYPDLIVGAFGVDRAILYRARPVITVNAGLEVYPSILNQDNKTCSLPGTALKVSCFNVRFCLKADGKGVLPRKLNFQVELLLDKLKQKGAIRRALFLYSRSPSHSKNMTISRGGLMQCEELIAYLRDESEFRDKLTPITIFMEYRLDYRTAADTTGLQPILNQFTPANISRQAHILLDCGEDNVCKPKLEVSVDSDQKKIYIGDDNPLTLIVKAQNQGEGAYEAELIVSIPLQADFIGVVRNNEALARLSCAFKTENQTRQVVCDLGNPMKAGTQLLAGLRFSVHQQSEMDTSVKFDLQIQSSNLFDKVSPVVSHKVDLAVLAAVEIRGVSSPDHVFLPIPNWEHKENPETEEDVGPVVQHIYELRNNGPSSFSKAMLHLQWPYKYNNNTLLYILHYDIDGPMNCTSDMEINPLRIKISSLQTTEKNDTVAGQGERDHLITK
T5 sequence (P06756 891-1048 partner limits assumed): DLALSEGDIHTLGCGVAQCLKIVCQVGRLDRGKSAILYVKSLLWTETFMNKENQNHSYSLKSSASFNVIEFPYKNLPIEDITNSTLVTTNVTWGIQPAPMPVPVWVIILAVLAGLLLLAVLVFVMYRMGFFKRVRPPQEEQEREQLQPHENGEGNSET
T5 sequence (P05106 27-788): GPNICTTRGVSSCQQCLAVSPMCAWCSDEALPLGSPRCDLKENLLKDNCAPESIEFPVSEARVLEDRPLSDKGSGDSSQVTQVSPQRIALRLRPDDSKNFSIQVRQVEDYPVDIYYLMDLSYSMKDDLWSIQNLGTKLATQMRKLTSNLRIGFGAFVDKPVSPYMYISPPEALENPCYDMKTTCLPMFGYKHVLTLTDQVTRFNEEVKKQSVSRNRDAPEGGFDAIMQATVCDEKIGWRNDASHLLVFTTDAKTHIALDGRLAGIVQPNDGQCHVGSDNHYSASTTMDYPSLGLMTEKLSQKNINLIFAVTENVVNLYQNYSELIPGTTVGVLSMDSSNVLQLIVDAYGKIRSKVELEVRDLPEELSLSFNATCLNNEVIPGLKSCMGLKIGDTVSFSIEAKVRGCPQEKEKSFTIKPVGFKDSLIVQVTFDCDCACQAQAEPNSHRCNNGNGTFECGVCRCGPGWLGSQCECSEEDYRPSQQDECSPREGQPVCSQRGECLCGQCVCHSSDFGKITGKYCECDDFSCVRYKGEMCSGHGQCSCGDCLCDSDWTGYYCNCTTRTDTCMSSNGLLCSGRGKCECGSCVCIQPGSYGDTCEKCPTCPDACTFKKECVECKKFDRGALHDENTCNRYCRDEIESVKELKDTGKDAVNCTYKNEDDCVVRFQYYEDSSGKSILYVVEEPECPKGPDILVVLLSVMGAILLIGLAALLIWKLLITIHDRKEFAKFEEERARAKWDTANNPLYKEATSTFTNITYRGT

Turning to `CC(CN(C)C)NCc1ccccc1Sc1ccc(C(C)(C)C)cc1` (stereo not shown) [Cmpd Z], the concentration for half-maximal inhibition (IC50) (in general, the midpoint of a concentration-inhibition curve) on α4β7 is 11 µM; on αLβ2, 20 µM; on αdβ2, above 40 µM; against α4β1 it was above 40 µM.
For `Nc1ccc(Sc2ccc(NC(=O)CCc3ccccc3)cc2)c(Cl)c1` [Cmpd W], the IC50 on α4β7 was 5 µM; against αMβ2, 4 µM; on αVβ3, 8 µM; against αLβ2 it was 30 µM; against αdβ2 it was above 40 µM; at α4β1, above 40 µM.
Consider `CC(=O)Oc1ccccc1C(=O)n1c(-c2ccccc2)cc2ccccc21` [Cmpd D], for which the half-maximal inhibitory concentration (IC50) against α4β7 was 4 µM; at αMβ2 it was 7 µM; at αVβ3, 4 µM; against αLβ2 it was 28 µM; against αdβ2, above 40 µM; on α4β1, above 40 µM.
On to `O=C(NCc1cccnc1)c1ccccc1C(=O)Nc1sc2ccccc2c1Cl` [Cmpd K], for which the IC50 on α4β7 was 4 µM; against αMβ2 it was 4 µM; at αVβ3, 6 µM; against αLβ2, 11 µM; at αdβ2, above 40 µM; against α4β1, above 40 µM.
